Legend:
[1] = tested on: SKBR3 cells; assay: Uptake mechanism of GO nanodrug structures with endocytosis inhibitors (flow cytometry); format: cell-based, human; conditions: 1 hour pre-incubation with inhibitor, 15 mins with nanoparticles, FIG. 10
Description: The uptake mechanism of the GO nanodrug structures was then investigated using various endocytosis inhibitors in comparison with the graphene oxide drug metamaterial described here-above, free of any drug active (GO control).
Different endocytosis inhibitors were tested: • Cytochalasin D, an inhibitor of macropinocytosis-dependent endocytosis in a dosage of 10, 5 and 1 (μM); • Genistein, an inhibitor of caveolae-mediated endocytosis in a dosage of 100, 30 and 25 (μM); and • Chlorpromazine (CMZ), an inhibitor of clathrin-mediated endocytosisin a dosage of 5, 1 and 0.5 (μM).
Cellular internalization of each nanostructure was followed as described here-after.
SKBR3 cells were seeded to a density of 1.0×10^5 cells per well in a 12-well plates followed by an overnight incubation. The cells were rinsed with PBS and pre-incubated with different concentrations of the appropriate endocytic inhibitor in serum-free RPMI 1640 media, for 1 hour. The media was then replaced with the same concentration of inhibitors in serum-containing RPMI 1640 media, the nanoparticles were added and cells were incubated for 15 mins. Following incubation, the medium was removed and cells were rinsed several times with cold PBS. The cells were collected with trypsin EDTA and analyzed using flow cytometry analysis.

[2] = tested on: SKBR3 cells; assay: Uptake efficiency of GO-HER2 antibody nanodrug structures after preincubation with Lapatinib; format: cell-based, human; conditions: SKBR3 cells preincubated with Lapatinib; FIG. 11
Source text: Abscissa: amount of Lapatinib (μM). Ordinate: uptake efficiency (%).
Lapatinib is a known HER2 tyrosine kinase inhibitor, which induces stabilization and accumulation of HER2.

[3] = tested on: MDA-MB-231 (human breast basal epithelial cancer cells); conditions: MDA-MB-231 cells, different concentrations of the peptide; Kawamoto et al. 2013; cited from earlier work

Molecule	inhibition of internalization (cellular uptake) of GO nanodrug structures [1]	other results
CN(C)CCCN1c2ccccc2Sc2ccc(Cl)cc21 [Chlorpromazine]	did not show any notable inhibition	–
C=C1[C@@H](C)[C@H]2[C@H](Cc3ccccc3)NC(=O)[C@]23[C@H](OC(C)=O)/C=C/[C@@](C)(O)C(=O)[C@@H](C)C/C=C/[C@H]3[C@@H]1O [Cytochalasin D]	significantly inhibited the internalization	–
O=c1c(-c2ccc(O)cc2)coc2cc(O)cc(O)c12 [Genistein]	did not show any notable inhibition	–
CS(=O)(=O)CCNCc1ccc(-c2ccc3ncnc(Nc4ccc(OCc5cccc(F)c5)c(Cl)c4)c3c2)o1 [Lapatinib]	–	effect on uptake efficiency of GO-HER2 antibody nanodrug structures [2]: dose-dependent reduction in intake
KLLLKLLKKLLKLLKKK (anti-cancer cationic lytic peptide) [cationic lytic anti-cancer peptide, disintegrates the cell membrane]	–	effect on cell proliferation [3]: dose-dependent reduction in cell proliferation

Reference: patent US20190091163A1, “NANO-SIZED DRUG DELIVERY STRUCTURE” (INSTITUT NATIONAL DE LA SANTE ET DE LA RECHERCHE MEDICALE …, priority 2016, published 2019)
